Assay results published in the CheMixHub ionic liquid set.

Assay: xn = mol fraction of the nth substance listed

COCCOCCn1cc[n+](CCC#N)c1.O=S(=O)([N-]S(=O)(=O)C(F)(F)F)C(F)(F)F + CS(C)=O
101.3 kPa
Conditions | electrical conductivity [S/m] | viscosity [mPa·s]
293.15 K, x1 = 0.1981 | 0.00634 | 8.12
293.15 K, x1 = 0.2776 | 0.00928 | –
303.15 K, x1 = 0.0989 | 0.00234 | –
303.15 K, x1 = 0.1981 | 0.00768 | –
303.15 K, x1 = 0.2776 | 0.0112 | 9.24
303.15 K, x1 = 0.5029 | 0.0405 | 26.2
303.15 K, x1 = 0.89 | 0.0942 | 83.1
313.15 K, x1 = 0.0989 | 0.00278 | –
313.15 K, x1 = 0.1981 | 0.00939 | –
313.15 K, x1 = 0.798 | 0.148 | 33.2
313.15 K, x1 = 0.89 | 0.125 | 51.5
323.15 K, x1 = 0.0989 | 0.00342 | –
323.15 K, x1 = 0.1981 | 0.0122 | 3.212
323.15 K, x1 = 0.798 | 0.203 | 24.66

CC[n+]1ccn(C)c1.O=S(=O)([O-])C(F)(F)F + CS(C)=O + CC#N
viscosity [mPa·s], 100 kPa
Conditions | 298.15 K | 303.15 K | 308.15 K | 313.15 K | 318.15 K | 323.15 K
x1 = 0.1068, x2 = 0.8932 | 3.7 | – | – | – | – | –
x1 = 0.2015, x2 = 0.7985 | 5.3 | 4.7 | – | 3.8 | 3.4 | –
x1 = 0.2065, x2 = 0.6555 | 3.5 | – | – | – | – | –
x1 = 0.2333, x2 = 0.6152 | 3.7 | – | – | – | – | –
x1 = 0.2695, x2 = 0.5629 | 4.1 | 3.7 | 3.4 | – | – | –
x1 = 0.3077, x2 = 0.6923 | 7.9 | – | 6.1 | 5.4 | 4.9 | –
x1 = 0.3091, x2 = 0.5059 | 4.6 | 4.2 | 3.9 | 3.5 | – | –
x1 = 0.3343, x2 = 0.4656 | 5.1 | 4.6 | – | 3.8 | 3.5 | –
x1 = 0.361, x2 = 0.4229 | 5.6 | 5 | 4.6 | 4.2 | 3.8 | –
x1 = 0.3948, x2 = 0 | 4.5 | 4.1 | 3.8 | 3.5 | – | –
x1 = 0.4023, x2 = 0.5977 | – | – | 8.9 | 7.8 | 7 | 6.2
x1 = 0.4096, x2 = 0.3523 | 6.7 | 6 | 5.4 | 4.9 | 4.4 | 4.1
x1 = 0.4353, x2 = 0.3096 | 7.4 | 6.6 | – | 5.3 | 4.8 | –
x1 = 0.4741, x2 = 0.2498 | 8.5 | 7.6 | 6.7 | 6 | 5.5 | 5
x1 = 0.4933, x2 = 0.5067 | – | – | – | – | 9.3 | 8.2
x1 = 0.498, x2 = 0 | 7.4 | 6.6 | 6 | 5.4 | 4.9 | –
x1 = 0.5094, x2 = 0.1935 | 9.7 | 8.6 | 7.6 | 6.8 | 6.1 | 5.5
x1 = 0.5368, x2 = 0.1703 | – | 9.5 | 8.4 | 7.5 | 6.7 | 6
x1 = 0.5656, x2 = 0.1458 | – | – | 9.2 | 8.2 | 7.3 | 6.6
x1 = 0.595, x2 = 0 | – | 9.5 | 8.4 | 7.5 | 6.7 | 6
x1 = 0.5961, x2 = 0.12 | – | – | – | 9 | 8 | 7.2
x1 = 0.6284, x2 = 0.0927 | – | – | – | – | 8.9 | 7.9
x1 = 0.6565, x2 = 0.0845 | – | – | – | – | 9.7 | 8.6
x1 = 0.686, x2 = 0.076 | – | – | – | – | – | 9.4
x1 = 0.6936, x2 = 0 | – | – | – | – | 9.5 | 8.3
x1 = 0.7058, x2 = 0.0663 | – | – | – | – | – | 9.9
x1 = 0.9005, x2 = 0 | 34 | – | – | – | – | –
x1 = 0.9008, x2 = 0.0992 | 39 | – | – | – | – | –
x1 = 1, x2 = 0 | 46 | 38 | – | – | – | –
